Where a name gives a salt, the structure may show the parent alone.
Test system: not given
Experiment: not given
Settings: not given

**Q.** With `CCN1CCC(c2cccc(C(C)=O)c2F)CC1` as the molecule, how does the melting point read?
**A.** 199 to 202 °C

**Q.** With `CCN1CCC(c2cccc(S(=O)(=O)N(C)C)c2F)CC1` (as salt: fumaric acid salt) as the molecule, how does the melting point read?
**A.** 151 to 152 °C

**Q.** Which melting point does the source give for `CCN1CCC(c2cccc(C(=O)C(F)(F)F)c2F)CC1` (as salt: fumaric acid salt) here?
**A.** 109 to 110 °C

**Q.** Which melting point does the source give for `CCCN1CCN(c2cccc(C#N)c2C(F)(F)F)CC1` (as salt: hydrochloric acid salt) here?
**A.** 234 to 236 °C

**Q.** Which melting point does the source give for `CCCN1CCN(c2cccc(S(C)(=O)=O)c2F)CC1` (as salt: hydrochloric acid salt) here?
**A.** 241 to 243 °C

**Q.** For `CCN1CCC(c2cccc(S(=O)(=O)C(F)(F)F)c2F)CC1` (as salt: hydrochloric acid salt), which melting point is on record?
**A.** 189 to 191 °C

**Q.** Which melting point does the source give for `CCN1CCN(c2cccc(S(C)(=O)=O)c2F)CC1` (as salt: hydrochloric acid salt) here?
**A.** 214 to 216 °C

**Q.** For `CCCN1CCC(c2cccc(S(C)(=O)=O)c2F)CC1` (as salt: hydrochloric acid salt) [Example 1, 4-[2-FLUORO-3-(METHYLSULFONYL)PHENYL]-1-PROPYLPIPERIDINE], which melting point is on record?
**A.** 255 to 257 °C

**Q.** Which melting point does the source give for `CCCN1CCC(c2cccc(S(C)(=O)=O)c2Cl)CC1` (as salt: hydrochloric acid salt) [Example 3, 4-[2-CHLORO-3-(METHYLSULFONYL)PHENYL]-1-PROPYLPIPERIDINE] here?
**A.** 250 to 252 °C

**Q.** Which melting point does the source give for `CCCN1CCC(c2cccc(S(C)(=O)=O)c2C)CC1` (as salt: hydrochloric acid salt) [Example 4, 4-[2-METHYL-3-(METHYLSULFONYL)PHENYL]-1-PROPYLPIPERIDINE] here?
**A.** 233 to 235 °C

**Q.** For `CCCN1CCC(c2cccc(S(C)(=O)=O)c2N)CC1` (as salt: hydrochloric acid salt) [Example 6, 2-(METHYLSULFONYL)-6-(1-PROPYLPIPERIDIN-4-YL)ANILINE], which melting point is on record?
**A.** 232 to 233 °C

**Q.** For `CCCN1CCC(c2cccc(C(F)(F)F)c2C#N)CC1` (as salt: hydrochloric acid salt) [Example 7, 2-(1-PROPYLPIPERIDIN-4-YL)-6-(TRIFLUOROMETHYL)BENZONITRILE], which melting point is on record?
**A.** 272 to 274 °C

**Q.** For `CCCN1CCC(c2cccc(C(F)(F)F)c2OC)CC1` (as salt: hydrochloric acid salt) [Example 8, 4-[2-METHOXY-3-(TRIFLUOROMETHYL)PHENYL]-1-PROPYLPIPERIDINE], which melting point is on record?
**A.** 235.5 °C

**Q.** With `CCCN1CCN(c2cccc(C(F)(F)F)c2F)CC1` (as salt: hydrochloric acid salt) [Example 9, 1-[2-FLUORO-3-(TRIFLUOROMETHYL)PHENYL]-4-PROPYLPIPERAZINE] as the molecule, how does the melting point read?
**A.** 180 to 181 °C

**Q.** With `COCCN1CCN(c2cccc(C(F)(F)F)c2F)CC1` (as salt: hydrochloric acid salt) [Example 10, 1-[2-FLUORO-3-(TRIFLUOROMETHYL)PHENYL]-4-(2-METHOXYETHYL)PIPERAZINE] as the molecule, how does the melting point read?
**A.** 170 to 171 °C

**Q.** Which melting point does the source give for `CCCN1CCN(c2cccc(Cl)c2Cl)CC1` (as salt: hydrochloric acid salt) [Example 11, 1-(2,3-DICHLOROPHENYL)-4-PROPYLPIPERAZINE] here?
**A.** 220 to 221 °C

**Q.** For `CCCN1CCC(c2cccc(C#N)c2C(F)(F)F)CC1` (as salt: hydrochloric acid salt) [Example 13, 3-(1-PROPYLPIPERIDIN-4-YL)-2-(TRIFLUORO-METHYL)BENZONITRILE], which melting point is on record?
**A.** 266 to 269 °C

**Q.** With `CS(=O)(=O)c1cccc(C2CCN(CCC3OCCO3)CC2)c1F` (as salt: hydrochloric acid salt) [Example 26, 1-[2-(1,3-DIOXOLAN-2-YL)ETHYL]-4-[2-FLUORO-3-(METHYLSULFONYL)PHENYL]-PIPERIDINE] as the molecule, how does the melting point read?
**A.** 224 to 225 °C

**Q.** For `OCCN1CCC(c2cccc(C(F)(F)F)c2F)CC1` (as salt: hydrochloric acid salt) [Example 27, 2-{4-[2-FLUORO-3-(TRIFLUOROMETHYL)PHENYL]PIPERIDIN-1-YL}ETHANOL], which melting point is on record?
**A.** 224 to 226 °C

**Q.** With `CCCN1CCC(c2cccc(C(F)(F)F)c2O)CC1` (as salt: hydrochloric acid salt) [Example 29, 2-(1-PROPYLPIPERIDIN-4-YL)-6-(TRIFLUOROMETHYL)PHENOL] as the molecule, how does the melting point read?
**A.** 218 to 220 °C

**Q.** For `CCCN1CCC(c2cccc(OC(F)(F)F)c2O)CC1` (as salt: hydrochloric acid salt) [Example 30, 2-(1-PROPYLPIPERIDIN-4-YL)-6-(TRIFLUOROMETHOXY)PHENOL], which melting point is on record?
**A.** 203 to 205 °C

**Q.** With `OCCCN1CCC(c2cccc(C(F)(F)F)c2F)CC1` (as salt: hydrochloric acid salt) [Example 32, 3-{4-[2-FLUORO-3-(TRIFLUOROMETHYL)PHENYL]PIPERIDIN-1-YL}PROPAN-1-OL] as the molecule, how does the melting point read?
**A.** 259 to 261 °C

**Q.** With `C=CCN1CCC(c2cccc(S(C)(=O)=O)c2F)CC1` (as salt: hydrochloric acid salt) [Example 40, 1-ALLYL-4-[2-FLUORO-3-(METHYLSULFONYL)PHENYL]PIPERIDINE] as the molecule, how does the melting point read?
**A.** 259 to 261 °C

**Q.** With `COCCN1CCC(c2cccc(C(F)(F)F)c2F)CC1` (as salt: hydrochloric acid salt) [Example 47, 4-[2-FLUORO-3-(TRIFLUOROMETHYL)PHENYL]-1-(2-METHOXYETHYL)PIPERIDINE] as the molecule, how does the melting point read?
**A.** 180 to 181 °C

**Q.** For `C=CCN1CCC(c2cccc(C(F)(F)F)c2F)CC1` (as salt: hydrochloric acid salt) [Example 70, 1-ALLYL-4-[2-FLUORO-3-(TRIFLUOROMETHYL)PHENYL]PIPERIDINE], which melting point is on record?
**A.** 224 to 226 °C

**Q.** Which melting point does the source give for `CCCN1CCC(c2cccc(C(F)(F)F)c2F)CC1` (as salt: hydrochloric acid salt) [Example 71, 4-[2-FLUORO-3-(TRIFLUOROMETHYL)PHENYL]-1-PROPYLPIPERIDINE] here?
**A.** 258 to 260 °C

**Q.** Which melting point does the source give for `CCN1CCC(c2cccc(S(C)(=O)=O)c2Cl)CC1` (as salt: hydrochloride) [Example 28, 4-[2-CHLORO-3-(METHYLSULFONYL)PHENYL]-1-ETHYLPIPERIDINE] here?
**A.** 264 to 265 °C

**Q.** Which melting point does the source give for `CCN1CCC(c2cccc(S(C)(=O)=O)c2F)CC1` (as salt: maleic acid salt) [Example 2, 1-ETHYL-4-[2-FLUORO-3-(METHYLSULFONYL)PHENYL]-PIPERIDINE] here?
**A.** 112 to 113 °C

**Q.** Which melting point does the source give for `CCN1CCC(c2cccc(OS(=O)(=O)C(F)(F)F)c2F)CC1` (as salt: methanesulfonate) [Example 34, 3-(1-ETHYLPIPERIDIN-4-YL)-2-FLUOROPHENYL TRIFLUOROMETHANESULFONATE] here?
**A.** 158 to 159 °C

Test system: DOPAC (3,4-dihydroxyphenylacetic acid) in the rat striatum
Experiment: Increase of DOPAC in the rat striatum (in vivo neurochemistry)
Settings: Rattus norvegicus, sc, read-out: ED50 DOPAC
Text: After the behavioural activity sessions, the rats were decapitated and their brains rapidly taken out and put on an ice-cold petri-dish. The limbic forebrain, the striatum, the frontal cortex and the remaining hemispheral parts of each rat were dissected and frozen. Each brain part was subsequently analyzed with respect to its content of monoamines and their metabolites.
The monoamine transmitter substances (NA (noradrenaline), DA (dopamine), 5-HT (serotonin)) as well as their amine (NM (normethanephrine), 3-MT (3-methoxytyramine)) and acid (DOPAC (3,4-dihydroxylphenylacetic acid), 5-HIAA (5-hydroxyindoleacetic acid), HVA (homovamllic acid)) metabolites are quantified in brain tissue homogenates by HPLC separations and electrochemical detection
The analytical method is based on two chromatographic separations dedicated for amines or acids. Two chromatographic systems share a common auto injector with a 10-port valve and two sample loops for simultaneous injection on the two systems. Both systems are equipped with a reverse phase column (Luna C18(2), dp 3 μM, 50*2 mm i.d., Phenomenex) and electrochemical detection is accomplished at two potentials on glassy carbon electrodes (MF-1000, Bioanalytical Systems, Inc.). The column effluent is passed via a T-connection to the detection cell or to a waste outlet. This is accomplished by two solenoid valves, which block either the waste or detector outlet. By preventing the chromatographic front from reaching the detector, better detection conditions are achieved. […] Detection potentials relative to Ag/AgCl reference are 0.45 and 0.60V. […] Detection potentials relative to Ag/AgCl reference are 0.45 and 0.65V.
ED50 values for the increase of DOPAC in striatum are calculated by curve fitting.

**Q.** With `CCCN1CCC(c2cccc(C(F)(F)F)c2)CC1` [reference compound] as the molecule, how does the ED50 read?
**A.** 84 µmol/kg

Same assay, conditions: sc; increase of DOPAC in rat striatum after systemic administration (s.c.); maximal effects limited to 350-400% of control; range covers 95% of fits; read-out: ED50 DOPAC

**Q.** Which ED50 does the source give for `CCN1CCC(c2cccc(C(=O)C(F)(F)F)c2F)CC1` here?
**A.** 12 µmol/kg

**Q.** For `CCN1CCC(c2cccc(S(C)(=O)=O)c2F)CC1` [drawing 10], which ED50 is on record?
**A.** 68 µmol/kg

**Q.** With `COCCN1CCC(c2cccc(S(C)(=O)=O)c2F)CC1` [drawing 12] as the molecule, how does the ED50 read?
**A.** 84 µmol/kg

**Q.** For `COCCN1CCC(c2cccc(S(C)(=O)=O)c2)CC1` [reference compound], which ED50 is on record?
**A.** 208 µmol/kg

Test system: drug-naive rats
Experiment: Locomotor activity in drug-naive rats
Settings: drug-naive habituated rats, 11 μmol/kg, recorded between 30 and 60 minutes, ± SEM

**Q.** Which Locomotor activity does the source give for `CCN1CCC(c2cccc(S(C)(=O)=O)c2F)CC1` [drawing 36] here?
**A.** 2254 ± 804 counts/30 min

**Q.** For `COCCN1CCC(c2cccc(S(C)(=O)=O)c2F)CC1` [drawing 38], which Locomotor activity is on record?
**A.** 1836 ± 504 (P = 0.064) counts/30 min

Same assay, conditions: drug-naive habituated rats, 33 μmol/kg, recorded between 30 and 60 minutes, ± SEM

**Q.** For `CCN1CCC(c2cccc(S(C)(=O)=O)c2F)CC1` [drawing 36], which Locomotor activity is on record?
**A.** 2499 ± 766 (P = 0.1) counts/30 min

**Q.** With `COCCN1CCC(c2cccc(S(C)(=O)=O)c2F)CC1` [drawing 38] as the molecule, how does the Locomotor activity read?
**A.** 1258 ± 623 counts/30 min

Same assay, conditions: drug-naive habituated rats, 100 μmol/kg, recorded between 30 and 60 minutes, ± SEM

**Q.** With `CCN1CCC(c2cccc(S(C)(=O)=O)c2F)CC1` [drawing 36] as the molecule, how does the Locomotor activity read?
**A.** 2418 ± 703 (P = 0.1) counts/30 min

**Q.** For `COCCN1CCC(c2cccc(S(C)(=O)=O)c2F)CC1` [drawing 38], which Locomotor activity is on record?
**A.** 1085 ± 211 counts/30 min

Same assay, conditions: drug-naive rats, 11 μmol/kg, recorded for 60 minutes, ± SEM

**Q.** Which Locomotor activity does the source give for `CCN1CCC(c2cccc(S(C)(=O)=O)c2F)CC1` [drawing 29] here?
**A.** 13113 ± 1795 counts/60 min

Same assay, conditions: drug-naive rats, 33 μmol/kg, recorded for 60 minutes, ± SEM

**Q.** With `CCN1CCC(c2cccc(S(C)(=O)=O)c2F)CC1` [drawing 29] as the molecule, how does the Locomotor activity read?
**A.** 12744 ± 1291 counts/60 min

Same assay, conditions: drug-naive rats, 100 μmol/kg, recorded for 60 minutes, ± SEM

**Q.** With `CCN1CCC(c2cccc(S(C)(=O)=O)c2F)CC1` [drawing 29] as the molecule, how does the Locomotor activity read?
**A.** 12530 ± 2577 counts/60 min

Reference: patent publication US8314126B2, “Disubstituted phenylpiperdines/piperazines as modulators of dopamine neurotransmission” (NSAB, Filial af Neurosearch Sweden AB, Sverige, priority 2004, dated 2012)
